Target: Mitogen-activated protein kinase kinase kinase kinase 1 (Homo sapiens, UniProt Q92918)
Test: Tests of Compounds for Inhibiting HPK1 Kinase Activity In Vitro
Method: The compound dilution was transferred into 384-well plate by using a pipette, afterwards, the 384-well plate was sealed and centrifuged at 1000 g for 1 min. 2-fold concentration of HPK1 solution was prepared in the kinase buffer, and then 2.5 μL of the prepared 2-fold concentration of HPK1 solution was added into the 384 wells, centrifuged at 1000 g for 30 s, and incubated for 10 min at room temperature. A mixture of 2-fold concentration of MBP and ATP was prepare in the kinase buffer, and […] of prepared mixture of 2-fold concentration of MBP and ATP was added into the above reaction system for the reaction, centrifuged at 1000 g for 30 s, and then incubated at room temperature for 1 h, 5 μL of ADP-Glo reagent was added into the reaction system, and incubated at room temperature for 40 min. 10 μL of kinase detection reagent was added and incubated at room temperature for 40 min.

Sequence of Mitogen-activated protein kinase kinase kinase kinase 1 (Q92918 whole entry): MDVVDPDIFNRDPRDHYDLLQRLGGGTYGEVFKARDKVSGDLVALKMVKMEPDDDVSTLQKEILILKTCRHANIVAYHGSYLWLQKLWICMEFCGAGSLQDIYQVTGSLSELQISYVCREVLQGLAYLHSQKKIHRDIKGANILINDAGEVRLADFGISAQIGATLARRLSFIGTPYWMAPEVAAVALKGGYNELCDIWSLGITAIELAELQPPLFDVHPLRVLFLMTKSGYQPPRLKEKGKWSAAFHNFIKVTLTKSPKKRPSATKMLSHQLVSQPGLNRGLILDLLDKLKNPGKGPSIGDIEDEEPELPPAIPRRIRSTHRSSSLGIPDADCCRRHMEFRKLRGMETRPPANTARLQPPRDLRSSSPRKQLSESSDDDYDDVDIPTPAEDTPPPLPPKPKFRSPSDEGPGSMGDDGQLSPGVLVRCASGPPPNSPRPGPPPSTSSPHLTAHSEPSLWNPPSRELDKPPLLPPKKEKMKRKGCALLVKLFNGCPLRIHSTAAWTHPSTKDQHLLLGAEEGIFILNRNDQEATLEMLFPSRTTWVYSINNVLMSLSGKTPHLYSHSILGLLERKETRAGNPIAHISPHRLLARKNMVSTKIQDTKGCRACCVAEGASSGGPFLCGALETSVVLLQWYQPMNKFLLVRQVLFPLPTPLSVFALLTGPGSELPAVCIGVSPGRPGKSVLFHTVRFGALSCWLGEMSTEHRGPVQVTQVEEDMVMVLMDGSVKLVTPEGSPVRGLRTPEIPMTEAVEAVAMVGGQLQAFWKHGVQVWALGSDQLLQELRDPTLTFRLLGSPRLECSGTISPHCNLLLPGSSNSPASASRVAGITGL

| SMILES | IC50 [nM] |
| --- | --- |
| CN1CCN(c2ccc(C(=O)Nc3cc4cc(-c5cccn5C)c(F)c(N)c4cn3)cc2)CC1 [US20250161319, Example 7] | < 300 |
| C=Cn1cccc1-c1cc2cc(NC(=O)C3CC3F)ncc2c(N)c1F (configuration not stated) [US20250161319, Example 4] | < 50 |
| CCn1cccc1-c1cc2cc(NC(=O)C3CC3F)ncc2c(N)c1F (configuration not stated) [US20250161319, Example 2] | < 50 |
| Cn1cccc1-c1cc2cc(NC(=O)C3CC3F)ncc2c(F)c1C#N (configuration not stated) [US20250161319, Example 10] | > 300 |
| CC(C)n1cccc1-c1cc2cc(NC(=O)C3CC3F)ncc2c(N)c1F (configuration not stated) [US20250161319, Example 3] | < 50 |
| Cn1cccc1-c1cc2cc(NC(=O)c3ccc(N4CCNCC4)cc3)ncc2c(N)c1F [US20250161319, Example 6] | < 100 |
| CCn1cccc1-c1cc2cc(NC(=O)C3CCC(F)CC3)ncc2c(N)c1F (configuration not stated) [US20250161319, Example 9] | < 300 |

Reference: BindingDB's records for patent US20250161319 (Asclepieion Pharmaceutical, 2025)
